{"source": "patent US11207310B2", "about": "(PRILENIA NEUROTHERAPEUTICS LTD., priority 2016, dated 2021)", "test_system": "patients with HD", "excerpt": "The mPPT quantifies the patient's performance in physical tasks (Brown 2000). It is a standardized 9-item test (standing static balance, chair rise, lift a book and put it on a shelf, put on and remove a jacket, pick up a penny from floor, turn 360 degrees, 50 feet walk, climb one flight of stairs, climb stairs test (flights up and down)), that measures the patient's performance on functional tasks. Both the speed and accuracy at which the patients complete the items are taken into account during scoring. The maximum score of the test is 36, with higher scores indicating better performance. The Multiple Sclerosis Walking Scale (MSWS-12) was adapted to become a generic measure of walking and mobility and renamed the Walk-12.\nThe secondary efficacy variable and endpoint, the Modified Physical Performance Test (mPPT), quantifies the patient's performance in physical tasks (Brown 2000). It is a standardized 9-item test that measures the patient's performance on functional tasks. Assistive devices are permitted for the tasks that require a standing position (items 6 to 9). Both the speed and accuracy at which the patients complete the items were taken into account during scoring. The maximum score of the test is 36, with higher scores indicating better performance.", "key": {"[1]": {"settings": "67.5 mg bid, full analysis set, 26 weeks"}, "[2]": {"settings": "67.5 mg bid, full analysis set, 52 weeks"}, "[3]": {"settings": "67.5 mg bid, late stage HD patients with BL TFC<7, 52 weeks"}, "[4]": {"settings": "90 mg bid, HD1 and HD2 patients, 52 weeks"}, "[5]": {"settings": "90 mg bid, full analysis set, 26 weeks"}, "[6]": {"settings": "90 mg bid, full analysis set, 52 weeks"}, "[7]": {"settings": "90 mg bid, late stage HD patients with BL TFC<7, 52 weeks"}, "[8]": {"settings": "112.5 mg bid, HD1 and HD2 patients, 52 weeks"}, "[9]": {"settings": "112.5 mg bid, full analysis set, 26 weeks"}, "[10]": {"settings": "112.5 mg bid, full analysis set, 52 weeks"}, "[11]": {"settings": "112.5 mg bid, late stage HD patients with BL TFC<7, 52 weeks"}}, "note": "Like-named read-outs stand apart in the source and are kept apart here."}
{"compound": "CCCN1CCC(c2cccc(S(C)(=O)=O)c2)CC1", "note": "[pridopidine, 4-[3-(methylsulfonyl)phenyl]-1-propyl-piperidine]", "values": [{"measurement": "Δ to placebo: mPPT Turn 360 Degrees scores, change from baseline", "setting": "[1]", "result": "−0.06"}, {"measurement": "Δ to placebo: mPPT standing static balance scores", "setting": "[1]", "result": "−0.2"}, {"measurement": "Change from baseline in mPPT Climb Stairs (Flights Up and Down) scores, Δ to placebo", "setting": "[2]", "result": 0.04}, {"measurement": "Δ to placebo: mPPT 50 Feet Walk scores, change from baseline", "setting": "[2]", "result": 0.15}, {"measurement": "Δ to placebo: mPPT Chair Rise scores", "setting": "[2]", "result": "−0.1"}, {"measurement": "Δ to placebo: mPPT Climb One Flight of Stairs scores, change from baseline", "setting": "[2]", "result": 0.13}, {"measurement": "Δ to placebo: mPPT Lift a Book and Put it on the Shelf scores, change from baseline", "setting": "[2]", "result": 0.17}, {"measurement": "Δ to placebo: mPPT Pick up a Penny from the Floor scores, change from baseline", "setting": "[2]", "result": 0.09}, {"measurement": "Δ to placebo: mPPT Put on and Remove a Jacket scores, change from baseline", "setting": "[2]", "result": 0.21}, {"measurement": "Δ to placebo: mPPT Turn 360 Degrees scores, change from baseline", "setting": "[2]", "result": "−0.1"}, {"measurement": "Δ to placebo: mPPT standing static balance scores", "setting": "[2]", "result": "−0.19"}, {"measurement": "Change from baseline in mPPT Climb One Flight of Stairs scores, Δ to placebo", "setting": "67.5 mg bid, late stage HD patients with BL TFC 0-6, 52 weeks", "result": "−0.3"}, {"measurement": "Change from baseline in mPPT Climb Stairs (Flights Up and Down) scores, Δ to placebo", "setting": "[3]", "result": 0.16}, {"measurement": "Δ to placebo: mPPT Climb One Flight of Stairs scores, change from baseline", "setting": "[3]", "result": "−0.3"}, {"measurement": "Change from baseline in mPPT Climb One Flight of Stairs scores, Δ to placebo", "setting": "[4]", "result": 0.22}, {"measurement": "Change from baseline in mPPT Climb Stairs (Flights Up and Down) scores, Δ to placebo", "setting": "[4]", "result": 0.1}, {"measurement": "Change from baseline in mPPT Climb One Flight of Stairs scores, Δ to placebo", "setting": "90 mg bid, HD1 patients, 52 weeks", "result": "−0.06"}, {"measurement": "Change from baseline in mPPT Climb One Flight of Stairs scores, Δ to placebo", "setting": "90 mg bid, HD2 patients, 52 weeks", "result": 0.28}, {"measurement": "Change from baseline in mPPT Climb Stairs (Flights Up and Down) scores, Δ to placebo", "setting": "[5]", "result": "−0.08"}, {"measurement": "Δ to placebo: mPPT 50 Feet Walk scores, change from baseline", "setting": "[5]", "result": "−0.1"}, {"measurement": "Δ to placebo: mPPT Chair Rise scores", "setting": "[5]", "result": 0.01}, {"measurement": "Δ to placebo: mPPT Climb One Flight of Stairs scores, change from baseline", "setting": "[5]", "result": 0.15}, {"measurement": "Δ to placebo: mPPT Lift a Book and Put it on the Shelf scores, change from baseline", "setting": "[5]", "result": 0.04}, {"measurement": "Δ to placebo: mPPT Pick up a Penny from the Floor scores, change from baseline", "setting": "[5]", "result": 0.1}, {"measurement": "Δ to placebo: mPPT Put on and Remove a Jacket scores, change from baseline", "setting": "[5]", "result": "−0.01"}, {"measurement": "Δ to placebo: mPPT Turn 360 Degrees scores, change from baseline", "setting": "[5]", "result": 0.12}, {"measurement": "Δ to placebo: mPPT standing static balance scores", "setting": "[5]", "result": "−0.1"}, {"measurement": "Change from baseline in mPPT Climb Stairs (Flights Up and Down) scores, Δ to placebo", "setting": "[6]", "result": "−0.04"}, {"measurement": "Δ to placebo: mPPT 50 Feet Walk scores, change from baseline", "setting": "[6]", "result": "−0.23"}, {"measurement": "Δ to placebo: mPPT Chair Rise scores", "setting": "[6]", "result": "−0.31"}, {"measurement": "Δ to placebo: mPPT Climb One Flight of Stairs scores, change from baseline", "setting": "[6]", "result": 0.08}, {"measurement": "Δ to placebo: mPPT Lift a Book and Put it on the Shelf scores, change from baseline", "setting": "[6]", "result": 0.22}, {"measurement": "Δ to placebo: mPPT Pick up a Penny from the Floor scores, change from baseline", "setting": "[6]", "result": 0.14}, {"measurement": "Δ to placebo: mPPT Put on and Remove a Jacket scores, change from baseline", "setting": "[6]", "result": 0.08}, {"measurement": "Δ to placebo: mPPT Turn 360 Degrees scores, change from baseline", "setting": "[6]", "result": 0.04}, {"measurement": "Δ to placebo: mPPT standing static balance scores", "setting": "[6]", "result": "−0.14"}, {"measurement": "Change from baseline in mPPT Climb One Flight of Stairs scores, Δ to placebo", "setting": "90 mg bid, late stage HD patients with BL TFC 0-6, 52 weeks", "result": "−0.26"}, {"measurement": "Change from baseline in mPPT Climb Stairs (Flights Up and Down) scores, Δ to placebo", "setting": "[7]", "result": "−0.36"}, {"measurement": "Δ to placebo: mPPT Climb One Flight of Stairs scores, change from baseline", "setting": "[7]", "result": "−0.26"}, {"measurement": "Change from baseline in mPPT Climb One Flight of Stairs scores, Δ to placebo", "setting": "[8]", "result": 0.23}, {"measurement": "Change from baseline in mPPT Climb Stairs (Flights Up and Down) scores, Δ to placebo", "setting": "[8]", "result": 0.07}, {"measurement": "Change from baseline in mPPT Climb One Flight of Stairs scores, Δ to placebo", "setting": "112.5 mg bid, HD1 patients, 52 weeks", "result": 0.18}, {"measurement": "Change from baseline in mPPT Climb One Flight of Stairs scores, Δ to placebo", "setting": "112.5 mg bid, HD2 patients, 52 weeks", "result": 0.23}, {"measurement": "Change from baseline in mPPT Climb Stairs (Flights Up and Down) scores, Δ to placebo", "setting": "[9]", "result": "−0.08"}, {"measurement": "Δ to placebo: mPPT 50 Feet Walk scores, change from baseline", "setting": "[9]", "result": "−0.17"}, {"measurement": "Δ to placebo: mPPT Chair Rise scores", "setting": "[9]", "result": 0.12}, {"measurement": "Δ to placebo: mPPT Climb One Flight of Stairs scores, change from baseline", "setting": "[9]", "result": 0.16}, {"measurement": "Δ to placebo: mPPT Lift a Book and Put it on the Shelf scores, change from baseline", "setting": "[9]", "result": 0.14}, {"measurement": "Δ to placebo: mPPT Pick up a Penny from the Floor scores, change from baseline", "setting": "[9]", "result": 0.07}, {"measurement": "Δ to placebo: mPPT Put on and Remove a Jacket scores, change from baseline", "setting": "[9]", "result": "−0.03"}, {"measurement": "Δ to placebo: mPPT Turn 360 Degrees scores, change from baseline", "setting": "[9]", "result": 0.2}, {"measurement": "Δ to placebo: mPPT standing static balance scores", "setting": "[9]", "result": 0.05}, {"measurement": "Change from baseline in mPPT Climb Stairs (Flights Up and Down) scores, Δ to placebo", "setting": "[10]", "result": 0.1}, {"measurement": "Δ to placebo: mPPT 50 Feet Walk scores, change from baseline", "setting": "[10]", "result": "−0.15"}, {"measurement": "Δ to placebo: mPPT Chair Rise scores", "setting": "[10]", "result": "−0.12"}, {"measurement": "Δ to placebo: mPPT Climb One Flight of Stairs scores, change from baseline", "setting": "[10]", "result": 0.11}, {"measurement": "Δ to placebo: mPPT Lift a Book and Put it on the Shelf scores, change from baseline", "setting": "[10]", "result": 0.12}, {"measurement": "Δ to placebo: mPPT Pick up a Penny from the Floor scores, change from baseline", "setting": "[10]", "result": 0.07}, {"measurement": "Δ to placebo: mPPT Put on and Remove a Jacket scores, change from baseline", "setting": "[10]", "result": "−0.18"}, {"measurement": "Δ to placebo: mPPT Turn 360 Degrees scores, change from baseline", "setting": "[10]", "result": "−0.08"}, {"measurement": "Δ to placebo: mPPT standing static balance scores", "setting": "[10]", "result": "−0.12"}, {"measurement": "Change from baseline in mPPT Climb One Flight of Stairs scores, Δ to placebo", "setting": "112.5 mg bid, late stage HD patients with BL TFC 0-6, 52 weeks", "result": "−0.15"}, {"measurement": "Change from baseline in mPPT Climb Stairs (Flights Up and Down) scores, Δ to placebo", "setting": "[11]", "result": 0.31}, {"measurement": "Δ to placebo: mPPT Climb One Flight of Stairs scores, change from baseline", "setting": "[11]", "result": "−0.15"}]}
